Experimental data reported in the NIST ThermoML archive (doi:10.1016/j.jct.2015.02.023).
± gives the expanded uncertainty stated by the source.

Experiment: not given
Conditions: 293.15 K; 101.33 kPa; Liquid; Vibrating tube method

In order of rising mass density:
1. CCn1cc[n+](C)c1.CO[PH](=O)[O-] [1-ethyl-3-methylimidazolium methyl phosphonate]  1190.6 ± 1.6 kg/m3
2. CO[PH](=O)[O-].Cn1cc[n+](C)c1 [1,3-dimethylimidazolium methyl phosphonate]  1252.5 ± 1.8 kg/m3

Same assay, conditions: 303.15 K; 101.33 kPa; Liquid; Vibrating tube method

In order of falling mass density:
1. CO[PH](=O)[O-].Cn1cc[n+](C)c1 [1,3-dimethylimidazolium methyl phosphonate]  1246.4 ± 1.8 kg/m3
2. CCn1cc[n+](C)c1.CO[PH](=O)[O-] [1-ethyl-3-methylimidazolium methyl phosphonate]  1184.1 ± 1.6 kg/m3

Same assay, conditions: 313.15 K; 101.33 kPa; Liquid; Vibrating tube method

In order of rising mass density:
1. CCn1cc[n+](C)c1.CO[PH](=O)[O-] [1-ethyl-3-methylimidazolium methyl phosphonate]  1180.1 ± 1.6 kg/m3
2. CO[PH](=O)[O-].Cn1cc[n+](C)c1 [1,3-dimethylimidazolium methyl phosphonate]  1241.7 ± 1.8 kg/m3

Same assay, conditions: 323.15 K; 101.33 kPa; Liquid; Vibrating tube method

In order of falling mass density:
1. CO[PH](=O)[O-].Cn1cc[n+](C)c1 [1,3-dimethylimidazolium methyl phosphonate]  1233.4 ± 1.8 kg/m3
2. CCn1cc[n+](C)c1.CO[PH](=O)[O-] [1-ethyl-3-methylimidazolium methyl phosphonate]  1174 ± 1.6 kg/m3

Same assay, conditions: 333.15 K; 101.33 kPa; Liquid; Vibrating tube method

In order of falling mass density:
1. CO[PH](=O)[O-].Cn1cc[n+](C)c1 [1,3-dimethylimidazolium methyl phosphonate]  1227.2 ± 1.7 kg/m3
2. CCn1cc[n+](C)c1.CO[PH](=O)[O-] [1-ethyl-3-methylimidazolium methyl phosphonate]  1168.7 ± 1.6 kg/m3

Same assay, conditions: 343.15 K; 101.33 kPa; Liquid; Vibrating tube method

In order of rising mass density:
1. CCn1cc[n+](C)c1.CO[PH](=O)[O-] [1-ethyl-3-methylimidazolium methyl phosphonate]  1163.2 ± 1.5 kg/m3
2. CO[PH](=O)[O-].Cn1cc[n+](C)c1 [1,3-dimethylimidazolium methyl phosphonate]  1220.8 ± 1.7 kg/m3

Experiment: activity coefficient (dimensionless); of the first substance listed, at infinite dilution; xn = mol fraction of the nth substance listed
Conditions: 313.15 K; 101.33 kPa; Liquid; Chromatography; x1 = 0

In order of rising activity coefficient:
1. C[N+](=O)[O-] [nitromethane] + CCn1cc[n+](C)c1.CO[PH](=O)[O-]  0.75 ± 0.049
2. C[N+](=O)[O-] [nitromethane] + CO[PH](=O)[O-].Cn1cc[n+](C)c1  0.8 ± 0.05
3. CC#N [acetonitrile] + CO[PH](=O)[O-].Cn1cc[n+](C)c1  1.1 ± 0.07
4. c1ccncc1 [pyridine] + CCn1cc[n+](C)c1.CO[PH](=O)[O-]  1.77 ± 0.12
5. c1ccncc1 [pyridine] + CO[PH](=O)[O-].Cn1cc[n+](C)c1  2.15 ± 0.15
6. CCC[N+](=O)[O-] [1-nitropropane] + CO[PH](=O)[O-].Cn1cc[n+](C)c1  3.41 ± 0.23
7. c1ccccc1 [benzene] + CCn1cc[n+](C)c1.CO[PH](=O)[O-]  3.44 ± 0.23
8. c1ccccc1 [benzene] + CO[PH](=O)[O-].Cn1cc[n+](C)c1  5.69 ± 0.39
9. CCC(=O)CC [pentan-3-one] + CCn1cc[n+](C)c1.CO[PH](=O)[O-]  5.77 ± 0.39
10. CCCC(C)=O [pentan-2-one] + CCn1cc[n+](C)c1.CO[PH](=O)[O-]  6.12 ± 0.42
11. ClC(Cl)(Cl)Cl [tetrachloromethane] + CO[PH](=O)[O-].Cn1cc[n+](C)c1  6.57 ± 0.45
12. CCN(CC)CC [triethylamine] + CO[PH](=O)[O-].Cn1cc[n+](C)c1  9.04 ± 0.62
13. CCCC(C)=O [pentan-2-one] + CO[PH](=O)[O-].Cn1cc[n+](C)c1  10.6 ± 0.7
14. Cc1ccccc1 [toluene] + CO[PH](=O)[O-].Cn1cc[n+](C)c1  11.5 ± 0.78
15. Cc1ccccc1C [1,2-dimethylbenzene] + CCn1cc[n+](C)c1.CO[PH](=O)[O-]  14.4 ± 1
16. Cc1cccc(C)c1 [1,3-dimethylbenzene] + CCn1cc[n+](C)c1.CO[PH](=O)[O-]  18.6 ± 1.3
17. Cc1ccccc1C [1,2-dimethylbenzene] + CO[PH](=O)[O-].Cn1cc[n+](C)c1  19.2 ± 1.3
18. C#CCCCCC [1-heptyne] + CO[PH](=O)[O-].Cn1cc[n+](C)c1  22 ± 1.5
19. CCc1ccccc1 [ethylbenzene] + CO[PH](=O)[O-].Cn1cc[n+](C)c1  22.7 ± 1.6
20. CCN(CC)CC [triethylamine] + CCn1cc[n+](C)c1.CO[PH](=O)[O-]  30.2 ± 2.1
21. C1CCCCC1 [cyclohexane] + CCn1cc[n+](C)c1.CO[PH](=O)[O-]  89 ± 6
22. C1CCCCCC1 [cycloheptane] + CCn1cc[n+](C)c1.CO[PH](=O)[O-]  98.8 ± 6.8
23. C1CCCCC1 [cyclohexane] + CO[PH](=O)[O-].Cn1cc[n+](C)c1  129 ± 9
24. CC1CCCCC1 [methylcyclohexane] + CCn1cc[n+](C)c1.CO[PH](=O)[O-]  211 ± 15
25. C1CCCCCC1 [cycloheptane] + CO[PH](=O)[O-].Cn1cc[n+](C)c1  250 ± 17
26. CC1CCCCC1 [methylcyclohexane] + CO[PH](=O)[O-].Cn1cc[n+](C)c1  257 ± 18
27. CCCCCCCCCC [decane] + CCn1cc[n+](C)c1.CO[PH](=O)[O-]  882 ± 61
28. CCCCCCCCC [nonane] + CO[PH](=O)[O-].Cn1cc[n+](C)c1  1070 ± 74
29. CCCCCCCCCCC [undecane] + CO[PH](=O)[O-].Cn1cc[n+](C)c1  1530 ± 110
30. CCCCCCCCCCCCC [tridecane] + CO[PH](=O)[O-].Cn1cc[n+](C)c1  2380 ± 160
31. CCCCCCCCCCCCC [tridecane] + CCn1cc[n+](C)c1.CO[PH](=O)[O-]  2560 ± 180

Same assay, conditions: 323.15 K; 101.33 kPa; Liquid; Chromatography; x1 = 0

In order of rising activity coefficient:
1. C[N+](=O)[O-] [nitromethane] + CO[PH](=O)[O-].Cn1cc[n+](C)c1  0.81 ± 0.05
2. CC#N [acetonitrile] + CO[PH](=O)[O-].Cn1cc[n+](C)c1  1.11 ± 0.07
3. c1ccncc1 [pyridine] + CO[PH](=O)[O-].Cn1cc[n+](C)c1  2.16 ± 0.15
4. CCC[N+](=O)[O-] [1-nitropropane] + CO[PH](=O)[O-].Cn1cc[n+](C)c1  3.35 ± 0.23
5. c1ccccc1 [benzene] + CO[PH](=O)[O-].Cn1cc[n+](C)c1  5.58 ± 0.38
6. ClC(Cl)(Cl)Cl [tetrachloromethane] + CO[PH](=O)[O-].Cn1cc[n+](C)c1  6.83 ± 0.47
7. CCCC(C)=O [pentan-2-one] + CO[PH](=O)[O-].Cn1cc[n+](C)c1  10.5 ± 0.7
8. Cc1ccccc1 [toluene] + CO[PH](=O)[O-].Cn1cc[n+](C)c1  11.4 ± 0.78
9. CCN(CC)CC [triethylamine] + CO[PH](=O)[O-].Cn1cc[n+](C)c1  12.7 ± 0.9
10. Cc1ccccc1C [1,2-dimethylbenzene] + CO[PH](=O)[O-].Cn1cc[n+](C)c1  19.1 ± 1.3
11. CCc1ccccc1 [ethylbenzene] + CO[PH](=O)[O-].Cn1cc[n+](C)c1  22.1 ± 1.5
12. C#CCCCCC [1-heptyne] + CO[PH](=O)[O-].Cn1cc[n+](C)c1  23.5 ± 1.6
13. CCCCCCCCC [nonane] + CO[PH](=O)[O-].Cn1cc[n+](C)c1  1050 ± 72
14. CCCCCCCCCCC [undecane] + CO[PH](=O)[O-].Cn1cc[n+](C)c1  1470 ± 100
15. CCCCCCCCCCCCC [tridecane] + CO[PH](=O)[O-].Cn1cc[n+](C)c1  2220 ± 150

Same assay, conditions: 333.15 K; 101.33 kPa; Liquid; Chromatography; x1 = 0

In order of rising activity coefficient:
1. c1ccncc1 [pyridine] + CCn1cc[n+](C)c1.CO[PH](=O)[O-]  1.84 ± 0.12
2. Cc1ccccc1C [1,2-dimethylbenzene] + CCn1cc[n+](C)c1.CO[PH](=O)[O-]  15 ± 1
